Assay results from ChEMBL document CHEMBL1143615, “Synthesis and structure-activity relationship of fluoro analogues of 8-{2-[4-(4-methoxyphenyl)piperazin-1yl]ethyl}-8-azaspiro[4.5]decane-7,9-dione as selective alpha(1d)-adrenergic receptor antagonists” (J Med Chem, 2005).

Key:
D(2) dopamine receptor = D(2) dopamine receptor (Homo sapiens, UniProt P14416); assay: Binding affinity for human Dopamine receptor D2
D(3) dopamine receptor = D(3) dopamine receptor (Rattus norvegicus, UniProt P19020); assay: Binding affinity for rat Dopamine receptor D3
[1] = biological target: T1, Alpha-1B adrenergic receptor (Homo sapiens, UniProt P35368); assay: Binding affinity for human Alpha-1B adrenergic receptor
T1 sequence (P35368 whole entry): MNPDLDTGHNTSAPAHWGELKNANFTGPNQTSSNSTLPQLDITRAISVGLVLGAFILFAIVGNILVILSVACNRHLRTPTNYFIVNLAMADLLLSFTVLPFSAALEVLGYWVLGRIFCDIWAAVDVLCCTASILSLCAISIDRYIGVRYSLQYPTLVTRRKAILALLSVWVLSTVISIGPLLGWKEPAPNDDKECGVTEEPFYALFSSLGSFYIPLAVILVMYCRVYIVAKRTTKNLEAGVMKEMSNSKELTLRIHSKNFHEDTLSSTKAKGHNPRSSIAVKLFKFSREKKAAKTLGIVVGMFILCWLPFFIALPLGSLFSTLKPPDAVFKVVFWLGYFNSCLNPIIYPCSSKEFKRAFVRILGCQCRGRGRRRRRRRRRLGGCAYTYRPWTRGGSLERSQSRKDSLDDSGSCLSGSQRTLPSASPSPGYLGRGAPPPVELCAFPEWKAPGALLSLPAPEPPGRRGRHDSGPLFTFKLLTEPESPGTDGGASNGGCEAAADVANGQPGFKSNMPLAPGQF

[2] = biological target: T2, Alpha-1A adrenergic receptor (Homo sapiens, UniProt P35348); assay: Binding affinity for human Alpha-1A adrenergic receptor
T2 sequence (P35348 whole entry): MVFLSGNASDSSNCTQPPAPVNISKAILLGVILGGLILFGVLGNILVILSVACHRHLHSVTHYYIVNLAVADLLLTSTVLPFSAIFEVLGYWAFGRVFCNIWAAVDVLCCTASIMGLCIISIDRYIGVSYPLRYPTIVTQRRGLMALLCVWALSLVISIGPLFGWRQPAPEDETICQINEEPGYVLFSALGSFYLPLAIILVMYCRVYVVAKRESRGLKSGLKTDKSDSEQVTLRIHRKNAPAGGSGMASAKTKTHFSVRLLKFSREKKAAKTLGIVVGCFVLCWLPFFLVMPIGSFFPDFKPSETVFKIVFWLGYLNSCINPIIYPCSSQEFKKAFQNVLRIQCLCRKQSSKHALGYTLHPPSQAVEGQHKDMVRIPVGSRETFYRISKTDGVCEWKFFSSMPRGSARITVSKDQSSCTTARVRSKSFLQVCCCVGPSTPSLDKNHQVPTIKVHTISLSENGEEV

[3] = biological target: T3, 5-hydroxytryptamine receptor 1A (Homo sapiens, UniProt P08908)
T3 sequence (P08908 whole entry): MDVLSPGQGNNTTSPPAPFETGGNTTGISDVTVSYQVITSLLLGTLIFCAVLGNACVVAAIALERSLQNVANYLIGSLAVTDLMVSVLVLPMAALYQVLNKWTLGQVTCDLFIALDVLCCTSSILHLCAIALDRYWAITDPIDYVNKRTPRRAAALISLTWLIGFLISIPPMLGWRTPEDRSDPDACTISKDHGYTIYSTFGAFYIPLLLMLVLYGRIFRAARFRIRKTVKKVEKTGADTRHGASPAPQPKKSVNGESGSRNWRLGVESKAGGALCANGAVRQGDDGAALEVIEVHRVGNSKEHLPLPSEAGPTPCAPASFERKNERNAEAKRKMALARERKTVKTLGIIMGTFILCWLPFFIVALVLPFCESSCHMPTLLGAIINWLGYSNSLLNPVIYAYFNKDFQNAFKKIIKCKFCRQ
Description: Binding affinity for human 5-hydroxytryptamine 1A receptor

[4] = biological target: T4, Alpha-1D adrenergic receptor (Homo sapiens, UniProt P25100); assay: Binding affinity for human Alpha-1D adrenergic receptor
T4 sequence (P25100 whole entry): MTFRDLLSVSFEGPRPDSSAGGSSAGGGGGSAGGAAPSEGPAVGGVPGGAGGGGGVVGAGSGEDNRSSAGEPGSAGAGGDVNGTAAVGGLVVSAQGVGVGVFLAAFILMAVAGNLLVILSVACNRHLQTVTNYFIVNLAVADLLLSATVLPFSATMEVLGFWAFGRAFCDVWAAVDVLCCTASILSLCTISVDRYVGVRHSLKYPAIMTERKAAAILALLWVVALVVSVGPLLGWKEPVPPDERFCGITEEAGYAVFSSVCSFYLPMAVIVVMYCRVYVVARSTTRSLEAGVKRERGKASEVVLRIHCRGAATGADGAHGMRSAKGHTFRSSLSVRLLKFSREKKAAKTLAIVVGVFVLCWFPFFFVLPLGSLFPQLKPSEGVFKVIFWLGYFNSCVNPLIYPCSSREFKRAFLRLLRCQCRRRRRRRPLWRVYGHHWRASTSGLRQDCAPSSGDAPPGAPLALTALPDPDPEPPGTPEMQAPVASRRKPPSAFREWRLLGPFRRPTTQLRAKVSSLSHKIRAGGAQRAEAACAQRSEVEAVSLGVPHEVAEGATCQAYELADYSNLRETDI

D(2) dopamine receptor, sequence (P14416 whole entry): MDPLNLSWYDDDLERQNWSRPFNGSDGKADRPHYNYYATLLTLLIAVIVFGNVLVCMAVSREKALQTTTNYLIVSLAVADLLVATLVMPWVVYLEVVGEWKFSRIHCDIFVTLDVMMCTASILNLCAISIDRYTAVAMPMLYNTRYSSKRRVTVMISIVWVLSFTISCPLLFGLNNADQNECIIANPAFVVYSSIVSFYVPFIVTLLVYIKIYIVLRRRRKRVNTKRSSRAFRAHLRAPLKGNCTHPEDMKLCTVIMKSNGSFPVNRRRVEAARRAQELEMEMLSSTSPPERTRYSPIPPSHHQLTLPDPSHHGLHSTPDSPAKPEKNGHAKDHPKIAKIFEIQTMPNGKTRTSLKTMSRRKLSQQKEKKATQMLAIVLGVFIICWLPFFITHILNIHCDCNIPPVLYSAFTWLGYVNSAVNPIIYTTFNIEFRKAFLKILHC
D(3) dopamine receptor, sequence (P19020 whole entry): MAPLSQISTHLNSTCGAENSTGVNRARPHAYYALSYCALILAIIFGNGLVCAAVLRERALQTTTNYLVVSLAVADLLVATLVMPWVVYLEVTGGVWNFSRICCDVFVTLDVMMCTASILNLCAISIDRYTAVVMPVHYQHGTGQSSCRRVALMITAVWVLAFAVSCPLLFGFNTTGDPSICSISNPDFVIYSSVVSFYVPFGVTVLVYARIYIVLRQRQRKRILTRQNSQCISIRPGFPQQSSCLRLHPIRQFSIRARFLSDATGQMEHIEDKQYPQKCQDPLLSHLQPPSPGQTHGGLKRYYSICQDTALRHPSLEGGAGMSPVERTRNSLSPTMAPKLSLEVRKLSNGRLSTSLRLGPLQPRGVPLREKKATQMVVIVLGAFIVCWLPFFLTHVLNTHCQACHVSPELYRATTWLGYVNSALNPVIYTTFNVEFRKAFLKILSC

O=C1CC2(CCCC2)CC(=O)N1CCN1CCN(c2ccc(F)c(F)c2)CC1 showed a Ki (D(2) dopamine receptor) of 2.2 µM, a Ki (D(3) dopamine receptor) of 0.16 µM and a Ki [1] of 1.4 µM. It also gave a Ki [2] of 4.1 µM and a Ki [3] of 0.055 µM.

For O=C1CC2(CCCC2)CC(=O)N1CCN1CCN(c2cc(F)c(F)cc2F)CC1, the Ki (D(2) dopamine receptor) was 0.7 µM, the Ki (D(3) dopamine receptor) was 0.023 µM and the Ki [1] was 0.38 µM. For the same compound, the Ki [4] was 0.0019 µM, the Ki [2] was 4.4 µM and the Ki [3] was 0.36 µM.

C[C@@H](CN1CCN(c2cc(F)c(F)cc2F)CC1)N1C(=O)CC2(CCCC2)CC1=O showed a Ki [4] of 0.124 µM.

Compound O=C1CC2(CCCC2)CC(=O)N1CCN1CCN(c2ccccc2F)CC1 has a Ki (D(2) dopamine receptor) of 0.14 µM, a Ki (D(3) dopamine receptor) of 0.0052 µM and a Ki [1] of 0.067 µM.

With O=C1CC2(CCCC2)CC(=O)N1CCN1CCN(c2ccc(F)cc2F)CC1 the Ki [1] was 1.1 µM, the Ki [4] was 0.0056 µM and the Ki [2] was 3.8 µM. It also gave a Ki [3] of 0.024 µM.

For O=C1CC2(CCCC2)CC(=O)N1CCN1CCN(c2cc(F)ccc2F)CC1, the Ki (D(2) dopamine receptor) was 0.12 µM, the Ki (D(3) dopamine receptor) was 0.0081 µM and the Ki [1] was 0.054 µM. For the same compound, the Ki [4] was 0.00095 µM.

Work on O=C1CC2(CCCC2)CC(=O)N1CCN1CCN(c2ccc(F)cc2)CC1 yielded a Ki (D(2) dopamine receptor) of 2.2 µM, a Ki (D(3) dopamine receptor) of 0.091 µM and a Ki [1] of 0.255 µM. It also gave a Ki [4] of 0.014 µM, a Ki [2] of 0.62 µM and a Ki [3] of 0.054 µM.

Work on C[C@H](CN1CCN(c2cc(F)c(F)cc2F)CC1)N1C(=O)CC2(CCCC2)CC1=O yielded a Ki (D(2) dopamine receptor) of 0.58 µM, a Ki (D(3) dopamine receptor) of 0.12 µM and a Ki [2] of 14 µM.

In the case of COc1ccccc1N1CCN(CCN2C(=O)CC3(CCCC3)CC2=O)CC1 [BMY-7378], the Ki (D(2) dopamine receptor) is reported as 0.014 µM, the Ki (D(3) dopamine receptor) is reported as 0.0031 µM and the Ki [3] is reported as 0.00046 µM.
